Patent US20230382925A1, “MODULATORS OF CYSTIC FIBROSIS TRANSMEMBRANE CONDUCTANCE REGULATOR” (VERTEX PHARMACEUTICALS INCORPORATED, priority 2020, published 2023)
Like-named read-outs stand apart in the source and are kept apart here.

Molecular target: CFTR (Homo sapiens, UniProt P13569)
Test: Membrane Potential Dye, Enteroid Assay B
Assay type: cell-based
Procedure, shortened: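 Human intestinal enteroid cells exposed to compound 18-24 h at 37 °C, then loaded with methyl oxonol membrane-potential dye plus CaCC blockers. Chloride transport triggered in chloride-free buffer with 10 μM forskolin, 100 μM IBMX, 300 nM Compound III; fluorescence read 15 min, expressed as % of triple-corrector/potentiator combination control.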

[1] = Table 10, read-out: Ent. B EC50

CFTR, sequence (P13569 with tags, fused parts or gaps DEL508-508): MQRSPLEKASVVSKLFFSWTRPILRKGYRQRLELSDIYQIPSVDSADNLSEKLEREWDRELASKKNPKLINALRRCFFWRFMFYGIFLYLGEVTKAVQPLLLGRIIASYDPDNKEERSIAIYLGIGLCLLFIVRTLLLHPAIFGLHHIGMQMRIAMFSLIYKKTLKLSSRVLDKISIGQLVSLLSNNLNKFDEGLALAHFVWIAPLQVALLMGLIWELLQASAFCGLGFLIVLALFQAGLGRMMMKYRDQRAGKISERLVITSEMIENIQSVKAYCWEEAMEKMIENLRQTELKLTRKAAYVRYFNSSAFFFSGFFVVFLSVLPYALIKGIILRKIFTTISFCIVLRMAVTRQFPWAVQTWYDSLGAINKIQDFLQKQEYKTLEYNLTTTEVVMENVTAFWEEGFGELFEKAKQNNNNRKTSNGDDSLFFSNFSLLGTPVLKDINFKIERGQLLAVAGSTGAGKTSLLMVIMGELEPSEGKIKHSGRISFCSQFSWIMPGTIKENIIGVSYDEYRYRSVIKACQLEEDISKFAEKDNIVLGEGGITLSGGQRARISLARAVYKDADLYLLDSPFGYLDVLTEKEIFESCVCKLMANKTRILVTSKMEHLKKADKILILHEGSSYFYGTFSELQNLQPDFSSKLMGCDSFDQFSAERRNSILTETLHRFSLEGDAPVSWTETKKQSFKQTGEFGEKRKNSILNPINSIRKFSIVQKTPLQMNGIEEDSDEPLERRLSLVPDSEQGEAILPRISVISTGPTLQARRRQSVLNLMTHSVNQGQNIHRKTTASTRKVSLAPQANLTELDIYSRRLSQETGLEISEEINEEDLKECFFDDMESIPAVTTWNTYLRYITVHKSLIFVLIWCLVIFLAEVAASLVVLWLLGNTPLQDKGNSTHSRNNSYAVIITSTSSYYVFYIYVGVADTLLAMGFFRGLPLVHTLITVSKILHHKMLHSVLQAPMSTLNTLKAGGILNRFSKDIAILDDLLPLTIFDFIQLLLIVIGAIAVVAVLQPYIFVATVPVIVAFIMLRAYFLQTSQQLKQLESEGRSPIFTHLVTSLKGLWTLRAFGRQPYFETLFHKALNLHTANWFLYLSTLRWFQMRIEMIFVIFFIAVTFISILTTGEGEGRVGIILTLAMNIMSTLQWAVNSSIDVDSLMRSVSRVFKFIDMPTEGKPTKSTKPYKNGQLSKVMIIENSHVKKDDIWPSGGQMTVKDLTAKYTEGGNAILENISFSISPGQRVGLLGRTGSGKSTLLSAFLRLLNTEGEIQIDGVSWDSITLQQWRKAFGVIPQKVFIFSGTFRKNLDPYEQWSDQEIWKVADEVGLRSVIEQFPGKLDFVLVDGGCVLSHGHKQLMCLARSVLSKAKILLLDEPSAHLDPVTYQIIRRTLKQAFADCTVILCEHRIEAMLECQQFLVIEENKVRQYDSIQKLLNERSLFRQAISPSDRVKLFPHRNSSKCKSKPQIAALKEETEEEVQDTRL

Compound	Ent. B Max Activity (%) (Table 10)	EC50 [1]	Ent. B Max Activity (%) (Table 9)	EC50 (Table 9, read-out: Ent. B EC50)
CNC(=O)C1CC2(C1)CC(N1C(=O)c3cccc(c3)S(=O)(=O)Nc3nc(cc(-c4c(C)cccc4C)n3)OC[C@H]1CC(C)(C)C)C2 (stereo partly shown) [Compound 234]	+++ (+++ is >60%)	< 1000 nM	–	–
CNC(=O)C1CC2(C1)CC(N1C(=O)c3cccc(c3)S(=O)(=O)Nc3nc(cc(-c4c(C)cccc4C)n3)OC[C@H]1CC(C)(C)C)C2 (stereo partly shown) [Compound 235]	+++ (+++ is >60%)	< 1000 nM	–	–
CCC(=O)NC1(C)CC(N2C(=O)c3cccc(c3)S(=O)(=O)Nc3nc(cc(-c4c(C)cccc4C)n3)OC[C@H]2CC(C)(C)C)C1 (stereo partly shown) [Compound 242]	++ (++ is 30-60%)	< 1000 nM	–	–
CCC(=O)NC1(C)CC(N2C(=O)c3cccc(c3)S(=O)(=O)Nc3nc(cc(-c4c(C)cccc4C)n3)OCC2CC(C)(C)C)C1 (stereo not shown) [Compound 243]	+++ (+++ is >60%)	< 1000 nM	–	–
Cc1cccc(C)c1-c1cc2nc(n1)NS(=O)(=O)c1cccc(c1)C(=O)N([C@H]1C[C@]3(C[C@H](NC(=O)C(C)C)C3)C1)[C@H](CC1(C(F)(F)F)CC1)CO2 (stereo partly shown) [Compound 246]	+++ (+++ is >60%)	< 1000 nM	–	–
Cc1cccc(C)c1-c1cc2nc(n1)NS(=O)(=O)c1cccc(c1)C(=O)N([C@H]1C[C@@]3(C[C@H](NC(=O)C(C)C)C3)C1)[C@H](CC1(C(F)(F)F)CC1)CO2 (stereo partly shown) [Compound 247]	+++ (+++ is >60%)	< 1000 nM	–	–
CCC(=O)N[C@H]1C[C@@]2(C1)C[C@H](N1C(=O)c3cccc(c3)S(=O)(=O)Nc3nc(cc(-c4c(C)cccc4C)n3)OC[C@H]1CC1(C(F)(F)F)CC1)C2 (stereo partly shown) [Compound 248]	+++ (+++ is >60%)	< 1000 nM	–	–
CCC(=O)N[C@H]1C[C@]2(C1)C[C@H](N1C(=O)c3cccc(c3)S(=O)(=O)Nc3nc(cc(-c4c(C)cccc4C)n3)OC[C@H]1CC1(C(F)(F)F)CC1)C2 (stereo partly shown) [Compound 249]	+++ (+++ is >60%)	< 1000 nM	–	–
[H][C@]1(N2C(=O)c3cccc(c3)S(=O)(=O)Nc3nc(cc(-c4c(C)cccc4C)n3)OC[C@H]2CC(C)C)C[C@@]2(C[C@H](NC(=O)CC)C2)C1 (stereo partly shown) [Compound 250]	–	< 1000 nM	–	–
Cc1cccc(C)c1-c1cc2nc(n1)NS(=O)(=O)c1cccc(c1)C(=O)N(C1CC(N(C)C)C1)[C@H](CC(C)(C)C)CO2 (stereo partly shown) [Compound 253]	++ (++ is 30-60%)	< 1000 nM	–	–
Cc1cccc(C)c1-c1cc2nc(n1)NS(=O)(=O)c1cccc(c1)C(=O)N(C1CC(N(C)C)C1)[C@H](CC(C)(C)C)CO2 (stereo partly shown) [Compound 254]	++ (++ is 30-60%)	< 1000 nM	–	–
Cc1cccc(C)c1-c1cc2nc(n1)NS(=O)(=O)c1cccc(c1)C(=O)N(C1CC3(COC(=O)N3)C1)[C@H](CC(C)C)CO2 (stereo partly shown) [Compound 255]	++ (++ is 30-60%)	< 1000 nM	–	–
Cc1cccc(C)c1-c1cc2nc(n1)NS(=O)(=O)c1cccc(c1)C(=O)N(C1CC3(COC(=O)N3)C1)[C@H](CC(C)C)CO2 (stereo partly shown) [Compound 256]	++ (++ is 30-60%)	< 1000 nM	–	–
COCC(C)N1CCC2(CC1)CC(N1C(=O)c3cccc(c3)S(=O)(=O)Nc3nc(cc(-c4c(C)cccc4C)n3)OC[C@H]1CC(C)C)C2 (stereo partly shown) [Compound 257]	–	–	+++ (+++ is >60%)	< 1000 nM
CCN1CCC2(CC1)CC(N1C(=O)c3cccc(c3)S(=O)(=O)Nc3nc(cc(-c4c(C)cccc4C)n3)OC[C@H]1CC(C)C)C2 [Compound 258]	–	–	+++ (+++ is >60%)	< 1000 nM
COC(=O)N1CCC2(CC1)CC(N1C(=O)c3cccc(c3)S(=O)(=O)Nc3nc(cc(-c4c(C)cccc4C)n3)OC[C@H]1CC1(C(F)(F)F)CC1)C2 [Compound 261]	–	–	+++ (+++ is >60%)	< 1000 nM
COC(=O)N1CCC2(CC1)CC(N1C(=O)c3cccc(c3)S(=O)(=O)Nc3nc(cc(-c4c(C)cccc4C)n3)OC[C@H]1CC(C)(C)C)C2 [Compound 262]	–	–	+++ (+++ is >60%)	< 1000 nM
COC(=O)NCC1CC(N2C(=O)c3cccc(c3)S(=O)(=O)Nc3nc(cc(-c4c(C)cccc4C)n3)OC[C@H]2CC(C)C)C1 (stereo partly shown) [Compound 263]	–	–	+++ (+++ is >60%)	< 1000 nM
Cc1cccc(C)c1-c1cc2nc(n1)NS(=O)(=O)c1cccc(c1)C(=O)N([C@H]1C[C@]3(C[C@H](NC(C)C)C3)C1)[C@H](CC1(C(F)(F)F)CC1)CO2 (stereo partly shown) [Compound 265]	–	–	+++ (+++ is >60%)	< 1000 nM

Compound	Ent. B Max Activity (%) (Table 10)	EC50 [1]	Ent. B Max Activity (%) (Table 9)	EC50 (Table 9, read-out: Ent. B EC50)
Cc1cccc(C)c1-c1cc2nc(n1)NS(=O)(=O)c1cccc(c1)C(=O)N([C@H]1C[C@@]3(C[C@H](NC(C)C)C3)C1)[C@H](CC1(C(F)(F)F)CC1)CO2 (stereo partly shown) [Compound 266]	–	–	+++ (+++ is >60%)	< 1000 nM
CN[C@H]1C[C@@]2(C1)C[C@H](N1C(=O)c3cccc(c3)S(=O)(=O)Nc3nc(cc(-c4c(C)cccc4C)n3)OC[C@H]1CC1(C(F)(F)F)CC1)C2 (stereo partly shown) [Compound 267]	–	–	+++ (+++ is >60%)	< 1000 nM
CN[C@H]1C[C@]2(C1)C[C@H](N1C(=O)c3cccc(c3)S(=O)(=O)Nc3nc(cc(-c4c(C)cccc4C)n3)OC[C@H]1CC1(C(F)(F)F)CC1)C2 (stereo partly shown) [Compound 268]	–	–	+++ (+++ is >60%)	< 1000 nM
COCCN[C@H]1C[C@@]2(C1)C[C@H](N1C(=O)c3cccc(c3)S(=O)(=O)Nc3nc(cc(-c4c(C)cccc4C)n3)OC[C@H]1CC1(C(F)(F)F)CC1)C2 (stereo partly shown) [Compound 269]	–	–	+++ (+++ is >60%)	< 1000 nM
COCCN[C@H]1C[C@]2(C1)C[C@H](N1C(=O)c3cccc(c3)S(=O)(=O)Nc3nc(cc(-c4c(C)cccc4C)n3)OC[C@H]1CC1(C(F)(F)F)CC1)C2 (stereo partly shown) [Compound 270]	–	–	+++ (+++ is >60%)	< 1000 nM
Cc1cccc(C)c1-c1cc2nc(n1)NS(=O)(=O)c1cccc(c1)C(=O)N([C@H]1C[C@]3(C[C@H](N(C)C(=O)OC(C)C)C3)C1)[C@H](CC1(C(F)(F)F)CC1)CO2 (stereo partly shown) [Compound 271]	–	–	+++ (+++ is >60%)	< 1000 nM
Cc1cccc(C)c1-c1cc2nc(n1)NS(=O)(=O)c1cccc(c1)C(=O)N([C@H]1C[C@@]3(C[C@H](N(C)C(=O)OC(C)C)C3)C1)[C@H](CC1(C(F)(F)F)CC1)CO2 (stereo partly shown) [Compound 272]	–	–	+++ (+++ is >60%)	< 1000 nM
COC(=O)N[C@H]1C[C@@]2(C1)C[C@H](N1C(=O)c3cccc(c3)S(=O)(=O)Nc3nc(cc(-c4c(C)cccc4C)n3)OC[C@H]1CC1(C(F)(F)F)CC1)C2 (stereo partly shown) [Compound 273]	–	–	+++ (+++ is >60%)	< 1000 nM
COC(=O)N[C@H]1CC2(C1)C[C@H](N1C(=O)c3cccc(c3)S(=O)(=O)Nc3nc(cc(-c4c(C)cccc4C)n3)OC[C@H]1CC1(C(F)(F)F)CC1)C2 (stereo partly shown) [Compound 274]	–	–	+++ (+++ is >60%)	< 1000 nM
Cc1cccc(C)c1-c1cc2nc(n1)NS(=O)(=O)c1cccc(c1)C(=O)N(C1CC3(CCN(C4CCOCC4)CC3)C1)[C@H](CC(C)C)CO2 [Compound 275]	–	–	+++ (+++ is >60%)	< 1000 nM
Cc1cccc(C)c1-c1cc2nc(n1)NS(=O)(=O)c1cccc(c1)C(=O)N(C1CC3(CCN(C4CC(F)(F)C4)CC3)C1)[C@H](CC(C)C)CO2 [Compound 276]	–	–	+++ (+++ is >60%)	< 1000 nM
Cc1cccc(C)c1-c1cc2nc(n1)NS(=O)(=O)c1cccc(c1)C(=O)N(C1CC3(CCN(CCOC4CC4)CC3)C1)[C@H](CC(C)C)CO2 [Compound 278]	–	–	+++ (+++ is >60%)	< 1000 nM
Cc1cccc(C)c1-c1cc2nc(n1)NS(=O)(=O)c1cccc(c1)C(=O)N(C1CC3(CCN(CC(C)(C)C)CC3)C1)[C@H](CC(C)C)CO2 [Compound 279]	–	–	+++ (+++ is >60%)	< 1000 nM
Cc1cccc(C)c1-c1cc2nc(n1)NS(=O)(=O)c1cccc(c1)C(=O)N(C1CC3(CCN(C4CCC4)CC3)C1)[C@H](CC(C)C)CO2 [Compound 280]	–	–	+++ (+++ is >60%)	< 1000 nM
CN[C@H]1CC2(C1)C[C@H](N1C(=O)c3cccc(c3)S(=O)(=O)Nc3nc(cc(-c4c(C)cccc4C)n3)OC[C@H]1CC(C)C)C2 (stereo partly shown) [Compound 281]	–	–	+++ (+++ is >60%)	< 1000 nM
Cc1cccc(C)c1-c1cc2nc(n1)NS(=O)(=O)c1cccc(c1)C(=O)N([C@H]1CC3(C[C@H](N(C)C(=O)OC(C)C)C3)C1)[C@H](CC(C)C)CO2 (stereo partly shown) [Compound 283]	–	–	++ (++ is 30-60%)	< 1000 nM
[H][C@]1(N2C(=O)c3cccc(c3)S(=O)(=O)Nc3nc(cc(-c4c(C)cccc4C)n3)OC[C@H]2CC(C)C)C[C@@]2(C[C@H](N(C)C(=O)OC(C)C)C2)C1 (stereo partly shown) [Compound 284]	–	–	++ (++ is 30-60%)	< 1000 nM
[H][C@]1(N2C(=O)c3cccc(c3)S(=O)(=O)Nc3nc(cc(-c4c(C)cccc4C)n3)OC[C@H]2CC(C)C)C[C@@]2(C[C@H](N(C)CCOC)C2)C1 (stereo partly shown) [Compound 285]	–	–	+++ (+++ is >60%)	< 1000 nM
